Target: T1, UCHL1 (Homo sapiens, UniProt P09936)
T1 sequence (P09936 1-220): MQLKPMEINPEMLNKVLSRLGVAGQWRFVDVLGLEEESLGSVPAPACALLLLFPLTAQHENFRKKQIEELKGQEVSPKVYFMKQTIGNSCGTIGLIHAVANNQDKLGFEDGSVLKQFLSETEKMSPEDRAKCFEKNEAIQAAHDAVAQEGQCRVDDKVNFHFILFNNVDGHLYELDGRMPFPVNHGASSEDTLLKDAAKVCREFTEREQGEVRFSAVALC
Test: in vitro DUB IC50 assay
Type: biochemical

IC50: 230 nM
SMILES: N#CN1CC[C@H](C(=O)Nc2ncc(N3CCOCC3)s2)C1 [6RK73]

Source: paper PMC7611208 (Clinical cancer research : an official journal of the …, 2019)
